Source: patent publication US20140127269A1, “Anti-Inflammatory Peptide Derived From Thrombospondin-1 and Uses Thereof” (THE SCHEPENS EYE RESEARCH INSTITUTE, INC., priority 2012, published 2014)

Legend:
[1] = tested on: experimental mouse model of autoimmune uveitis (IRBP-immunized mice); assay: Experimental autoimmune uveitis, i.p. peptide treatment, clinical disease score; type: in vivo, C57BL/6 mice; conditions: i.p. 10 microgram on day 1, 3 and 5 post-immunization; scored for 26 days; compared to control peptide
Description: (§1) The expansion of Treg cells and the reduction of inflammatory effector cells was evaluated in an experimental mouse model of autoimmune uveitis to determine if the TSP-1 peptide reduced disease severity. […] The inflammatory response in the retina is monitored and scored regularly on the basis of severity by examining the fundus.
C57BL/6 mice were immunized subcutaneously, on day 0, with 200 microgram IRBP in complete Freund's adjuvant per mouse followed by i.p. injection of Pertussis toxin (0.1 microgram). On day 1, 3 and 5 post-immunization mice received i.p. injection of 10 microgram of either control or TSP-peptide. Clinical disease score was recorded for the 26 days post-immunization.

[2] = tested on: experimental mouse model of autoimmune uveitis (IRBP-immunized mice); assay: Experimental autoimmune uveitis, topical peptide treatment, clinical disease score and lymph node Th17/Treg transcription factor message; type: in vivo, C57BL/6 mice; conditions: for disease severity / ocular inflammation (clinical disease score): topical 10 microgram per mouse (5 microgram per eye) once per day, day 1 to 7, scored for 26 days, compared to control peptide
Description: as §1
For topical administration, 10 microgram per mouse (5 microgram per eye) was administered for the duration of 7 days. TSP peptide was administered topically once per day for 7 days post-immunization with IRBP-CFA. 1 microgram per microliter solution was used for the eye drops, i.e., 0.1% solution used as 5 microliter per eye resulting in total 10 microliter (10 microgram) per mouse. A liquid formulation was used in topical application as well as when peptide was administered intraperitoneally.
C57BL/6 mice were immunized subcutaneously, on day 0, with 200 microgram IRBP in complete Freund's adjuvant per mouse followed by i.p. injection of Pertussis toxin (0.1 microgram). From day 1 to day 7 pos-immunization total 10 microgram of control or TSP-peptide was administered topically (5 micrograms/5 microliters per eye). Clinical disease score was recorded for the 26 days post-immunization.

CD4+CD25− T cells = assay: Treg induction from anti-CD3-activated CD4+CD25- T cells in vitro (flow cytometry, TGFbeta ELISA); type: cell-based
Description: Purified CD4+CD25− T cells were stimulated with plate-bound anti-CD3 antibody for 48 hr at 37 degrees C. in the presence of 10 microM TSP-peptide or control peptide. Activated T cells were washed and subjected to 2 cycles of amplification, 48 hr each, in the presence of T cell growth factor IL-2 (50 U/ml). Proliferated T cells were then stained using fluorochrome-conjugated antibodies to label surface CD4 and CD25 and intracellular Foxp3. Stained cells were analyzed using a flow cytometer. Culture supernatants collected from cells after initial 48 hr culture were tested for the content of TGFbeta using an ELISA.

[3] = tested on: CD4+ T cells derived from the spleen and lymph node; assay: Treg and inflammatory effector cells in ova/CFA-immunized mice (flow cytometry); type: in vivo; conditions: 10 μg on day 1, 3 and 5 post-immunization, analysed day 7; compared to control peptide
Description: To determine if such an expansion of Treg cells by TSP-peptide is possible in vivo, and whether it can reduce the typical IL-17 or IFNγ-producing inflammatory effectors, mice were immunized with an ovalbumin (ova) antigen in Complete Freund's Adjuvant (CFA). This is a commonly used experimental approach to generate antigen-specific inflammatory effectors. These ova-immunized mice were treated with either control or TSP-peptide (10 μg; SEQ ID NO:1) on day 1, 3 and 5 post-immunization. On day 7 post-immunization, the CD4+ T cells derived from the spleen and lymph node of these mice were analyzed by flow cytometry to determine the numbers of Foxp3+ Treg cells and the expression patterns of the inflammatory cytokines, IL-17 and […].
Lymph nodes were harvested from immunized mice treated with either control or TSP-peptide 7 days post-immunization. Lymph node cells were cultured in the presence of PMA (10 ng/ml), ionomycin (200 ng/ml) and Brefeldin A for 20 hr at 37 degrees C. Cell surface CD4 and CD25 and intracellular Foxp3, IFNgamma and IL-17 were detected using fluorochrome-conjugated antibodies followed by flow cytometric analysis.

[4] = topical treatment, relative to control peptide

## KRFYVVMWKK (listed as Homo sapiens) [4N1K, 4N1 flanked with 2 Lys residues]
[1]
  disease severity (clinical disease score): significantly reduced
[2]
  disease severity / ocular inflammation (clinical disease score): significantly reduced
[2]; listed as TSP-1 peptide
  disease severity / ocular inflammation (clinical disease score): reduction of ocular inflammation
[2]; [4]
  anti-inflammatory Treg cells in the lymph nodes (transcriptional factor message): enhancement
  pro-inflammatory Th17 cells in the lymph nodes (transcriptional factor message): decline
CD4+CD25− T cells; 10 microM peptide, 48 hr anti-CD3 activation, then 2 cycles IL-2, compared to control peptide (4NGG)
  number of cells expressing Foxp3 and CD25: significantly increased
CD4+CD25− T cells; 10 microM peptide, culture supernatant after initial 48 hr, ELISA
  synthesis of immunosuppressive cytokine TGF-β1: increased
CD4+CD25− T cells; in vitro
  induction of Treg cells in vitro: effectively induces Treg cells
[3]
  numbers of Foxp3-expressing Treg cells: increased numbers
  numbers of IFN-γ-expressing CD4 effectors: reduced numbers
  numbers of IL-17-expressing CD4 effectors: reduced numbers
